The source of these data is patent US20130302311A1, “EMERGENCY INTERVENTIONS OF ACTIVE CHARCOAL WITH DABIGATRAN ETEXILATE OVERDOSING” (BOEHRINGER INGELHEIM INTERNATIONAL GMBH, priority 2009, published 2013).

Some results are limits rather than exact numbers.

A short description of data set [1]: Binding of dabigatran to active charcoal in plasma, LC-MS/MS. The conditions noted are these: for dabigatran plasma level (mean±SD): untreated plasma (no charcoal). Type of data set: physicochemical. How it is done: In these experiments, binding of dabigatran etexilate to active charcoal in water simulates recent ingestion (2-5, preferably 2-3 hrs) of large amounts of dabigatran etexilate in the stomach fluid. Binding of dabigatran to active charcoal in plasma simulates situations where dabigatran was absorbed after ingestion and present in high concentrations in plasma. In the plasma experiments, dabigatran was added to a plasma pool at supra-therapeutic concentrations of 470 and 940 ng/ml. The sample was then split, and active charcoal was added to half at the manufacturer's specified concentration (125 mg/ml), or 1:11 dilution of this. Dabigatran plasma levels were measured by a validated LC-MS/MS method.

Data set [2] can be described thus: Binding of dabigatran etexilate to activated charcoal in water (simulated stomach fluid), HPLC. Type of data set: physicochemical. The following applies: for dabigatran etexilate level recovered by HPLC: untreated suspension (no charcoal), filtered. The method, then: In these experiments, binding of dabigatran etexilate to active charcoal in water simulates recent ingestion (2-5, preferably 2-3 hrs) of large amounts of dabigatran etexilate in the stomach fluid. Binding of dabigatran to active charcoal in plasma simulates situations where dabigatran was absorbed after ingestion and present in high concentrations in plasma. The contents of 5, 10 and 20 capsules (150 mg/capsule) of dabigatran etexilate were suspended in 100 ml water (approx. stomach volume, pH 2.7, 2.5 and 2.4, respectively). Each suspension was divided in half. To one portion a freshly prepared activated charcoal suspension (125 mg/ml, Ultracarbon®, Merck) was added. Both suspensions (with and without charcoal) were filtered and dabigatran etexilate concentrations were assessed via HPLC.

For `Cn1c(CNc2ccc(C(=N)N)cc2)nc2cc(C(=O)N(CCC(=O)O)c3ccccn3)ccc21` [dabigatran], the “dabigatran plasma level after addition of activated charcoal” value in data set [1] (activated charcoal at 125 mg/ml or 1:11 dilution, dabigatran added at 470 and 940 ng/ml, close to or below lower limit of quantification) is below 1.01 ng/mL. Further, the entries for the “dabigatran plasma level (mean±SD)” value in data set [1] (dabigatran added at 470 ng/ml) and in data set [1] (dabigatran added at 940 ng/ml) were 394 ± 19.4 ng/mL and 824 ± 39.3 ng/mL, respectively.

Turning to `CCCCCCOC(=O)NC(=N)c1ccc(NCc2nc3cc(C(=O)N(CCC(=O)OCC)c4ccccn4)ccc3n2C)cc1` [dabigatran etexilate], the “dabigatran etexilate peak (HPLC) in charcoal-treated suspensions” value in data set [2] (activated charcoal suspension (125 mg/ml, Ultracarbon) added, all three tested concentrations) is listed as “no longer detectable”. Also, in data set [2] (activated charcoal suspension (125 mg/ml, Ultracarbon), all three tested concentrations), the “dabigatran etexilate adsorbed by the activated charcoal” value was above 99.9%. Besides, the “dabigatran etexilate level recovered by HPLC” value in data set [2] (contents of 5 capsules (150 mg/capsule) in 100 ml water, pH 2.7) was 8.3 mg/mL; in data set [2] (contents of 10 capsules (150 mg/capsule) in 100 ml water, pH 2.5), 15.6 mg/mL; in data set [2] (contents of 20 capsules (150 mg/capsule) in 100 ml water, pH 2.4), 29.6 mg/mL.
